Data taken from patent US5773459A, “Urea- and thiourea-type compounds” (Sugen, Inc., priority 1995, dated 1998).
Where two headings read alike, the source gives them in different places.

How the values were obtained:
HER2 = target: T1, HER2 (Homo sapiens, UniProt P04626); test: HER2-ELISA, HER2-BT474 assay measuring whole cell HER2 activity; assay type: cell-based
T1 construct: a human breast tumor cell line which expresses high levels of HER2 kinase; host or cells: BT-474 human breast tumor cells
T1 sequence (P04626 23-1255): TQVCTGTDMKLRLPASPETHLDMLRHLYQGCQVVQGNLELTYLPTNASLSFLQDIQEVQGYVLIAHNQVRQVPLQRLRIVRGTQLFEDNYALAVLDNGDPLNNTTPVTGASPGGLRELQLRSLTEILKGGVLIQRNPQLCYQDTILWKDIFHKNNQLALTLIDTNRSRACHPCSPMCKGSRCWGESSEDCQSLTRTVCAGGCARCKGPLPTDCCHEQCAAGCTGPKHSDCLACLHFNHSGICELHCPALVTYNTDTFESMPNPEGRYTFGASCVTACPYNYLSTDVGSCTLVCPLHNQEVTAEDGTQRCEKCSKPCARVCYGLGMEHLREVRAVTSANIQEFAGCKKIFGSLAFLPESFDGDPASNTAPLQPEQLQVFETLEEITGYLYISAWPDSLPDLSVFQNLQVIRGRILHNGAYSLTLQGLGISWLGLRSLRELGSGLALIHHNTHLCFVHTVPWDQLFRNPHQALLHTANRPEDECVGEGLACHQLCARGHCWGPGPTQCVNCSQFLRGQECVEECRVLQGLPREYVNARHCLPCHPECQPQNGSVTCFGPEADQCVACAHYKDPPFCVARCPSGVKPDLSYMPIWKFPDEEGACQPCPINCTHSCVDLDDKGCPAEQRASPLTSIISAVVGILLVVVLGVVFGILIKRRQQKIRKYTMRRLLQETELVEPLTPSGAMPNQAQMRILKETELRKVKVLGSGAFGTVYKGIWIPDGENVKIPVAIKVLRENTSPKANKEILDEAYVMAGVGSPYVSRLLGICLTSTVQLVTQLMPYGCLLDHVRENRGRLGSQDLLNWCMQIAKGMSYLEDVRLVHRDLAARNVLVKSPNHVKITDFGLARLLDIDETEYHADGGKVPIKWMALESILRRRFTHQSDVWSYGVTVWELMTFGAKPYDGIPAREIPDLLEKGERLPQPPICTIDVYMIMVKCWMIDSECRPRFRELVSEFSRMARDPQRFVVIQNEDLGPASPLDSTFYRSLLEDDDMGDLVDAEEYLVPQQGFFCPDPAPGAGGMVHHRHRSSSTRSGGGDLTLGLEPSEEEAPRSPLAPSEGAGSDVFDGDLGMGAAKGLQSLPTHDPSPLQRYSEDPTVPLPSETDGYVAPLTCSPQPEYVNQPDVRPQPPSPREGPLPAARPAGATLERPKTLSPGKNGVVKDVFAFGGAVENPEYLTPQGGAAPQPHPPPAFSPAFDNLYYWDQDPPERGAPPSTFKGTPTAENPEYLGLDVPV
Experimental: Growth assays were carried out using human mammary epithelial SKBR3 (ATCC HTB30) cells (SKBR3 cells over-express HER2), SKOV3 (ATCC HTB77) human ovarian cancer cell line (SKOV3 cells also over-express HER2), A431 cells (A431 cells over-express EGFR) MCF7 human breast carcinoma cells, MCF7 cells overexpressing the HER2 kinase (MCF7-HER2), NIH3T3 cells, and NIH3T3 cells overexpressing the HER2 kinase (3T3-HER2.
HER2-BT474 assays measuring whole cell HER2 activity was carried out as described below:
2. […] The growth media is RPMI+10% FBS+GMS-G (Gibco supplement)+Glutamine.
3. A monoclonal anti-HER2 antibody is used in ELISA.
Incubate the cells in 5% CO2 at 37° C. overnight.
2. ELISA Plate Coating and Blocking
The antibody coated plates can be used up to 2 weeks, when stored at 4° C.
(b) On the day of use, remove the coating solution, replace with 200 μl of Blocking Buffer, shake the plate, and then remove the blocking buffer and wash the plate just before adding lysate.
(a) […] the drugs in serum-free condition. Before adding drugs, the old media
(b) Dilute drug stock (in 100% DMSO) 1:10 with RPMI, and transfer 10 μl/well of this solution to the cells to achieve a final drug DMSO concentration at 1%. Incubate the cells in 5% CO2 at 37° C.
(c) Prepare fresh cell lysis buffer (HNTG*)
(d) After drug preincubation for two hours remove all the solution from the plate, transfer HNTG* 100 μl/well to the cells, and shake for 10 minutes.
(e) Use a 12-channel pipette to scrape the cells from the plate, and homogenize the lysate by repeat aspiration and dispensing. Transfer all the lysate to the ELISA plate and shake for 1 hour.
(f) Remove the lysate, wash the plate, add anti-pTyr (1:3,000 with TBST) 100 μl/well, and shake for 30 minutes.
(g) Remove anti-pTyr, wash the plate, add goat anti-rabbit IgG conjugated antibody (1:5,000 with TBST) 100 μl/well, and shake for 30 minutes.
(h) Remove anti-rabbit IgG antibody, wash the plate, and add fresh ABTS/H2 O2 (1.2 μl 30% H2 O2 in 10 ml ABTS) 100 μl/well to the plate to start color development, which usually takes 20 minutes.

[1] = tested on: chimeric receptor containing the EGFR extracellular domain and the HER2 intracellular kinase domain; test: EGFR-HER2 chimeric receptor assay, HER2 kinase activity in whole NIH3T3 cells; assay type: cell-based; settings: NIH3T3 cells with EGFR-HER2 chimera, EGF stimulated; read-out: ELISA DATA: HER2 - (3T3)
Description: The following examples illustrate the ability of the exemplary compounds to inhibit receptor tyrosine kinases, such as HER2 and/or EGFR. The following target cells were used for cellular kinase assays: NIH3T3 clone C7 (Honegger et al., supra) engineered to over-express human EGF receptor; NIH3T3 cells engineered to over-express a chimeric receptor containing the EGFR extracellular domain and the HER2 intracellular kinase domain; the human mammary carcinoma line BT474 (ATCC HTB2) expressing HER2; and the human glioblastoma line U1242 that expresses PDGFR-beta. Growth assays were carried out using human mammary epithelial SKBR3 (ATCC HTB30) cells (SKBR3 cells over-express HER2), SKOV3 (ATCC HTB77) human ovarian cancer cell line (SKOV3 cells also over-express HER2), A431 cells (A431 cells over-express EGFR) MCF7 human breast carcinoma cells, MCF7 cells overexpressing the HER2 kinase (MCF7-HER2), NIH3T3 cells, and NIH3T3 cells overexpressing the HER2 kinase (3T3-HER2.
EGFR-HER2 Chimeric Recetor
HER2 kinase activity (EGFR-3T3) in whole cells was measured as described below:
The materials and regeants are identical to these used in example 1, the EGFR whole cell kinase assay.
A. Coat ELISA plates (Corning, 96 well, Cat. #25805-96) with 05-101 antibody at 0.5 μg per well in PBS, 100 μl final volume/well, and store overnight at 4.sunburst.C. Coated plates are good for up to 10 days when stored at 4° C.
B. On day of use, remove coating buffer and replace with 100 μl blocking buffer (5% Carnation Instant Non-Fat Dry Milk in PBS). Incubate the plate, shaking, at room temperature (about 23.sunburst.C to 25.sunburst.C) for 30 minutes. Just prior to use, remove blocking buffer and wash plate 4 times with TBST buffer.
A. An NIH3T3 cell line overexpressing a chimeric receptor containing the EGFR extracellular domain and […] can be used for this assay.
B. Choose dishes having 80-90% confluence for the experiment. Trypsinize cells and stop reaction by adding 10% fetal bovine serum. Suspend cells in DMEM medium (10% CS DMEM medium) and centrifuge once at 1500 rpm, at room temperature for 5 minutes.
C. Resuspend cells in seeding medium (DMEM, 0.5% bovine serum) , and count the cells using trypan blue. Viability above 90% is acceptable. Seed cells in DMEM medium (0.5% bovine serum) at a density of 10,000 cells per well, 100 μl per well, in a 96 well microtiter plate. Incubate seeded cells in 5% CO2 at 37.sunburst.C for about 40 hours.
A. Check seeded cells for contamination using an inverted microscope. Dilute drug stock (10 mg/ml in DMSO) 1:10 in DMEM medium, then transfer 5 l to a […] well for a final drug dilution of 1:200 and a final DMSO concentration of 1%. Control wells receive DMSO alone. Incubate in 5% CO2 at 37° C. for two hours. […]

[2] = BT474 cells, read-out: ELISA DATA: HER2 - (BT474)

Row | IC50 (HER2; [2]) [µM] | IC50 [1] [µM] | Compound | IC50 (HER2) [µM]
1 | 11.8 | 10.3 | CC(C)S(=O)(=O)c1csc(NC(=O)Nc2ccc(C(C)(C)C)cc2)c1Cl [Example Z1, N-[3-Chloro-4-(isopropylsulfonyl)thien-2-yl]-N'-(4-t-butylphenyl)urea] | –
2 | 3.2 | 31.7 | CC(C)S(=O)(=O)c1csc(NC(=O)Nc2cc(C(F)(F)F)cc(C(F)(F)F)c2)c1Cl [Example Z2, N-[3-Chloro-4-(isopropylsulfonyl)thien-2-yl]-N'-(3,5-di-trifluoromethylphenyl)urea] | –
3 | 9.3 | > 100 | N#Cc1ccc(NC(=S)Nc2ccc(S(=O)(=O)N3CCCCC3)cc2)cc1 [Example Z4, N-(4-Cyanophenyl)-N'-[4-[(piperid-1-yl)sulfonyl]phenyl]thiourea] | –

Row | Compound | IC50 (HER2; [2]) [µM] | IC50 [1] [µM] | IC50 (HER2) [µM]
4 | O=C(Nc1ccc(SC(F)(F)F)cc1)Nc1ccc(Oc2ccc(Cl)cc2Cl)nc1 [Example Z3] | – | > 100 | 9.9
